Test results published in paper PMC12372887, “Mechanism and cellular actions of the potent AMPK inhibitor BAY-3827” (Science Advances, 2025).
Read-outs that look alike come from different tables or passages of the source.

Key:
HEK293 cells = assay: RSK signaling immunoblot in HEK293 cells; type: cell-based, human
Protocol: HEK293 cells (Invitrogen, R75007) were seeded at a density of 500,000 cells per well in six-well cell culture plates (Corning Incorporated Costar #3516) in Dulbecco’s modified Eagle medium (DMEM) high-glucose + GlutaMAX Supplement, pyruvate (Thermo Fisher Scientific, catalog no. 31966-021) containing penicillin G (100 U/ml), streptomycin (100 μg/ml), and 10% (v/v) FBS. Once attached, the next day, the media were changed to serum-free and the cells were starved for 16 hours followed by compound treatment with BAY-3827, BI-D1870 (MedChemExpress, #HY-10510) ± 10 μM MK-2206 dihydrochloride (MedChemExpress, #HY-10358) with 30 min incubation at 37°C followed by coincubation with […] (MedChemExpress, #HY-18739) or vehicle for additional 30 min with final assay DMSO concentration of 0.13%. All cell lines used here were tested monthly for mycoplasma and tested negative.
Following compound treatment, the cells were washed with room temperature PBS and lysed on ice with the addition of lysis buffer [50 mM tris-HCl (pH 7.5), 150 mM NaCl, 1 mM EDTA, 1 mM EGTA, 0.27 M sucrose, 1% w/v Triton X-100, 20 mM glycerol-2 phosphate disodium, 50 mM NaF, and 5 mM Na4P2O7.10 H2O] containing proteases and phosphatase inhibitors [0.5 mM phenylmethylsulfonyl fluoride (PMSF), 1 mM benzamidine HCl, leupeptin (1 μg/ml), pepstatin A (1 μg/ml), 1 μM microcystin-LR, 1 mM Na3VO4, and 1 mM DTT]. Lysates were centrifuged at 10,000g, 4°C for 10 min, and protein concentration of the supernatant was determined with the Pierce Bradford Protein Assay Kit (Thermo Fisher Scientific, #23200) and read on the Hidex Plate Reader (software version 0.5.64.0). Samples were prepared in Laemmli sample buffer (tris 200 mM, 8% SDS, EDTA 2 mM, and 40% glycerol) supplemented with 10% DTT and boiled for 5 min at 100°C. Ten micrograms of protein per sample was run on a Criterion tris-glycine polyacrylamide gel (Bio-Rad, #5678095) and transferred to a nitrocellulose membrane. For cell signaling experiments in HEK293 cells, the samples were run on a Criterion TGX stain-free precast gel (Bio-Rad, catalog no. 5678085) with transfer to a polyvinylidene difluoride membrane performed in Bio-Rad Criterion blotter (#1704071) using tris-glycine transfer buffer (Bio-Rad, #1610734) following the manufacturer’s instructions. The membranes were probed at 4°C overnight in a 4% BSA TBS-T solution containing 0.02% sodium azide with the following antibodies where appropriate: Phospho-ACC (Ser^79) (1:1000, Cell Signaling Technology, #3661S), ACC (C83B10) (1:1000, Cell Signaling Technology, #3676S), phospho-Raptor (Ser^792) (1:1000, Cell Signaling Technology, #2083S), Raptor (24C12) (1:1000, Cell Signaling Technology, #2280S), GSK3αβ (1:2000, Sigma-Aldrich, #04-903), phospho-GSK3αβ (Ser^21/9) (D17D2) (1:1000, Cell Signaling Technology, #8566S), ERK1/2 (137F5) (1:1000, Cell Signaling Technology, #4695), phospho-ERK1/2 (Thr^202/Tyr^204) (D13.14.4E) (1:1000, Cell Signaling Technology, #4370), phospho-AMPKα (Thr^172) (40H9) (1:1000, Cell Signaling Technology, #2535S), AMPKα (1:1000, Cell Signaling Technology, #2532S), anti–glyceraldehyde-3-phosphate dehydrogenase antibody (1:5000, Cell Signaling Technology, #G8795), and vinculin (1:1000, Cell Signaling Technology, #13901). Membranes were scanned using the Odyssey Fc LiCor system (exposure time, 30 s) with densitometry analysis performed using LiCor Image Studio Lite normalizing to control loading protein. Figures were made using GraphPad Prism v10.

[1] = system: pThr172-AMPKα in U2OS cells; assay: HTRF assay of Thr172-AMPKα phosphorylation in U2OS cells; type: cell-based, human; settings: 10 μM
Protocol: (§1) Human osteosarcoma U2OS WT cells were obtained from John Rouse (MRC Protein Phosphorylation and Ubiquitylation Unit, University of Dundee) and were cultured in DMEM high glucose + GlutaMAX Supplement, pyruvate (Thermo Fisher Scientific, catalog no. 31966-021) containing penicillin G (100 U/ml), streptomycin (100 μg/ml), and 10% (v/v) FBS seeding with 50,000 cells per well in a 50-μl volume in culture 96-well cell culture plates (Corning Incorporated costar, #3599). The next day, the media were changed to 50 μl of serum-free media, and 50 μl of serum-free media containing BAY-3827 or BAY-974 was dispensed and left to incubate at 37°C for 30 min. […] HTRF assays using either phospho-Ser^79-ACC1 kit (Revvity, #64ACCPEG) or phospho-Thr^172-AMPK kit (Revvity, #64AMPKPEG) were performed in triplicate in HTRF 96-well low volume white plates (Revvity, #66PL96001) following manufacturer’s instructions. Sealed plates incubated overnight in darkness conditions were scanned at room temperature in Multimode Plate Reader EnVision (PerkinElmer) machine following HTRF setup recommendations for EnVision (Revvity), equipped with a top mirror LANCE/DELFIA single mirror (#412), a UV2 (TRF) 320 excitation filter (#111), emission filter APC 665 (#205), and second emission filter Europium 615 (#203), with a 2000-μs cycle and 60-μs delay, with the number of flashes set to 100 as well as for the 2nd detector. Results were viewed in EnVision Manager software (version 1.13.3009.1401) where 665/615 ratios were calculated, and data were normalized to control condition as %. All assay ratios between control lysate signal/nonspecific signal were greater than 2 as expected of a successful assay following the manufacturer’s instructions. Data were visualized in GraphPad Prism v10.

[2] = system: AMPKα1α2−/− DKO primary hepatocytes; assay: Lipogenesis assay ([14C]-acetate incorporation into fatty acids); type: cell-based, mouse
Protocol: (§2) Mouse hepatocytes were isolated by collagenase perfusion as previously described ([47]). Hepatocytes were seeded in medium Eagle-199 (MEM-199) (#41150, Thermo Fisher Scientific) containing penicillin G (100 U/ml), streptomycin (100 μg/ml), and 10% (v/v) fetal bovine serum (FBS). Hepatocytes were left for attachment (3 to 4 hours) and serum-starved overnight at 37°C with 5% CO2 in MEM-199 supplemented with penicillin G (100 U/ml), streptomycin (100 μg/ml), 10 nM insulin, and 100 nM dexamethasone. […] Cells were then harvested in 0.5 ml of phosphate-buffered saline (PBS), transferred into 1 ml of 40% KOH and 2 ml of methanol followed by 1-hour incubation at 80°C. Lipids were […] by acidifying the samples in 37% HCl and extracted with petroleum ether. Extracts were allowed to evaporate to dryness and then dissolved in Ultima Gold scintillation fluid for determination of [^14C]-acetate incorporation into lipids.

[3] = system: AMPKα1α2+/+ control primary hepatocytes; assay: as above; type: cell-based, mouse
Protocol: as §2

[4] = system: pSer79-ACC1 in U2OS cells; assay: HTRF assay of Ser79-ACC1 phosphorylation in U2OS cells; type: cell-based, human; settings: 10 μM
Protocol: as §1

AMPK [5] = system: AMPK; set-up: method as in PMID 29695504; settings: 20 μM ATP; read-out: median inhibitory concentration (IC50); cited from earlier work
119 kinases = system: 119 kinases; set-up: method as in PMID 21740966; settings: of 119 kinases, 1 μM; cited from earlier work
RSK2 = system: RSK2; set-up: method as in PMID 20439741; settings: cited from earlier work
RSK1 = system: RSK1; set-up: method as in PMID 20439741; settings: cited from earlier work
AMPK [6] = system: AMPK; set-up: method as in PMID 20439741; settings: cited from earlier work

Structure (SMILES): CCCCCCCCCCCCCC(=O)O[C@@H]1[C@@H](C)[C@@]2(O)[C@@H](C=C(CO)C[C@]3(O)C(=O)C(C)=C[C@@H]23)[C@@H]2C(C)(C)[C@]12OC(C)=O [PMA, phorbol 12-myristate 13-acetate]
- pERK1/2 and pGSK3αβ levels (HEK293 cells; 0.1 μM, MK-2206–treated conditions): robustly increased

Structure (SMILES): CC(C)CCN1c2nc(Nc3cc(F)c(O)c(F)c3)ncc2N(C)C(=O)C1C (stereo not drawn) [BI-D1870]
- PMA-stimulated pGSK3αβ (surrogate of RSK activity) (HEK293 cells; 10 μM, in the presence of MK-2206 (10 μM)): inhibited to the same extent
- ACC1 phosphorylation (HEK293 cells; serum-starved HEK293, 1 and 10 μM): no effect

Structure (SMILES): O[C@@H]1CO[C@H]2[C@@H]1OC[C@H]2Oc1nc2nc(-c3ccc(-c4ccccc4)cc3)c(Cl)cc2[nH]1 [MK-8722]
- pThr172-AMPK versus vehicle [1]: significant increase
- effect on lipogenesis [2]: no effect
- suppression of lipogenesis ([3]; compound alone, 10 μM): > 80%
- pSer79-ACC1 versus vehicle [4]: significant increase

Structure (SMILES): CNC(=O)c1ccccc1Oc1nc(Nc2cc(OC)c(OC)c(OC)c2)ncc1Br [SBI-0206965]
- IC50 (AMPK [5]): 160 nM

Structure (SMILES): c1cc(-c2cnn3cc(-c4ccc(OCCN5CCCCC5)cc4)cnc23)ccn1 [compound C]
- restoration of MK-8722–inhibited lipogenesis ([3]; 25 μM, + MK-8722 (10 μM)): 10%
- number of kinases inhibited more potently than AMPK (119 kinases): 34

Structure (SMILES): Cc1nc(Nc2n[nH]c3c2CN(C(=O)N[C@H](CN(C)C)c2ccccc2)C3(C)C)c2sccc2n1 [PF-03758309]
- IC50 (RSK2): 2 nM
- IC50 (RSK1): 2 nM
- IC50 (AMPK [6]): 1 nM

Structure (SMILES): NC1(c2ccc(-c3nc4ccn5c(=O)[nH]nc5c4cc3-c3ccccc3)cc2)CCC1 [MK-2206]
- basal pGSK3αβ (HEK293 cells; 10 μM): reduced
